Format in all cases: biochemical
In one assay the test system is LPA 18:2. The assay can be described thus: Mouse whole blood (plasma) LPA assay. On the procedure: Whole blood is collected from rats or mouse by exsanguinations on sodium heparin tube, then after centrifugation at 3000 rpm for 15 min at 4° C., plasma is stored at −80° C. Compounds are diluted in DMSO in concentration dependent manner then 0.5 μL are dispensed into 96-wells plate placed in ice. Plasma is defrosted on ice then 49.5 μL of plasma are added into the well containing 0.5 μL of compound (1% DMSO final). Plates are covered with a lid in polypropylene and incubated at +37° C., 5% CO2, for 2 h under gentle shaking (except controls which are stored at −20° C.).
At the end of the incubation, controls are defrosted in ice and transferred in the incubated plates for LC-MS/MS analysis with a non GLP-validated method. For the analysis, plasma proteins from a 10 μL incubated plates are precipitated with an excess of methanol containing the internal standard, LPA 17:0. After centrifugation, the corresponding supernatant is injected on a C18 column. Analytes are eluted out of the column under isocratic conditions. An API5500 QTRAP mass spectrometer (ABSciex™) is used for the detection of LPA 18:2. No calibration curve is prepared for LPA 18:2, however relative quantities are evaluated based on the peak area.

The target of assay [1] is T1, hENPP2 (UniProtKB/SwissProt Sequence ref Q13822) (Homo sapiens (Human), UniProt Q13822). The assay can be described thus: FS3 hENPP2 assay (fluorogenic substrate FS-3). To be noted: hENPP2, FS-3 as substrate. The essentials: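 Compound dilutions (1/5 steps, top concentration as added 20 μM) were preincubated 30 min at room temperature with hENPP2 (0.4 or 0.64 μg/mL final) in pH 8.0 Tris buffer containing NaCl, KCl, MgCl2, CaCl2 and 0.1% fatty-acid-free BSA. FS-3 (0.75 μM as added) was then hydrolysed for 30 min at 30 °C, and fluorescence was read at 485/520 nm.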

Assay [2] deals with T1, hENPP2. As to the kind of experiment: LPC hENPP2 assay (choline release, LPC as substrate). The essentials:
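Choline released from LPC by ENPP2 is quantified after stopping with stop-developer containing 0.6 U/mL choline oxidase, 0.6 U/mL peroxidase, 1.8 mM TOOS, 1.2 mM amino-antipyrine and 20 mM EGTA. Quinoneimine dye read at 555 nm after 30 min at room temperature.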

SMILES strings stand for the structures. pIC50: −log10 of the molar value. Where only a bound is given, the exact number is not on record here.

With `CCc1nc2cnc(C3=CCN(CC(=O)N4CC(O)C4)CC3)cn2c1N(C)c1nc(-c2ccc(F)cc2)c(C#N)s1` [Cpd 21, 2-((2-ethyl-6-(1-(2-(3-hydroxyazetidin-1-yl)-2-oxoethyl)-1,2,3,6-tetrahydropyridin-4-yl)imidazo[1,2-a]pyrazin-3-yl)(methyl)amino)-4-(4-fluorophenyl) thiazole-5-carbonitrile], the pIC50 was below 6.00 in the assay with LPA 18:2, 7.60 to 11.00 on hENPP2 [1] and 6.30 to 7.00 on hENPP2 [2].
